The text below walks through data of article PMC5615050 (Scientific Reports, 2017).

“And” between values parts separate entries of the source, which are not always exact repeats. Identical values can stand only once. Like-named read-outs stand apart in the source and are kept apart here. Where only a bound is given, the exact number is not on record here.

Data set [1] deals with Wild type H1N1 NA (Influenza A virus, UniProt P03470). The data set can be described thus: biochemical.
Data set [2] deals with Wild type H5N1 NA (Influenza A virus, UniProt Q6DPL2). The data set can be described thus: biochemical. The format is biochemical.
Data set [3] deals with Bac-NA^WT H1N1 (Influenza A virus, UniProt P03470). The data set can be described thus: biochemical.
Data set [4] deals with NA. The settings on record: cited from earlier work.
Data set [5] has as its system Influenza A virus (A/WSN/33) H1N1. The data set can be described thus: microbe, parasite or virus in culture. The format is cell-based. Particulars: for IC50: read-out: IC50 H1N1 (concentration to reduce the CPE of the virus by 50%).
Data set [6] in a line: in vitro. Particulars: dog.

Wild type H1N1 NA, sequence (P03470 whole entry, looked up): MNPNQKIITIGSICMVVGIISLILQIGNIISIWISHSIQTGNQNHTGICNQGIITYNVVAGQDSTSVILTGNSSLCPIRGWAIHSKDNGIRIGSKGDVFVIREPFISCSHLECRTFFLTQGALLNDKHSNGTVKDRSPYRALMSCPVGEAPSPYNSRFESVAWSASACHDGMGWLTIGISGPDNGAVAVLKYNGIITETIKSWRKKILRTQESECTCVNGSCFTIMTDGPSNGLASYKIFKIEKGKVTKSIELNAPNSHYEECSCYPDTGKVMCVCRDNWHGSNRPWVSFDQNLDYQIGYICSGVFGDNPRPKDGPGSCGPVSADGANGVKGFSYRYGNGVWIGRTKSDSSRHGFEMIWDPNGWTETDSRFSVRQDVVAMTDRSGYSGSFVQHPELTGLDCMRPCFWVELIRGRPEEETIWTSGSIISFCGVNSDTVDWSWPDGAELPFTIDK
Bac-NA^WT H1N1, sequence (P03470 whole entry, looked up): as above
Wild type H5N1 NA, sequence (Q6DPL2 whole entry, looked up): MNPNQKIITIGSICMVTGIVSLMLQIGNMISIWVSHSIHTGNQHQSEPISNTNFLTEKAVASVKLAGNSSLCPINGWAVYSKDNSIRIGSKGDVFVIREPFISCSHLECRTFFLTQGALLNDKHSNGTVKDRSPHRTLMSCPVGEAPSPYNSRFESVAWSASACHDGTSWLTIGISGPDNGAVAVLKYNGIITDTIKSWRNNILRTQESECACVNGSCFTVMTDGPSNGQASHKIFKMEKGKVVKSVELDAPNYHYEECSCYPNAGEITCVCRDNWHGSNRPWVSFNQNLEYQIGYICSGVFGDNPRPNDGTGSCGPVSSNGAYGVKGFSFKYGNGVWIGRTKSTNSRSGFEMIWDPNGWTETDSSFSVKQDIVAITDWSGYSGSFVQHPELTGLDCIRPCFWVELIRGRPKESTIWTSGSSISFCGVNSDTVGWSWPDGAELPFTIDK

On to `CC1OC(OC2CC(O)C3(CO)C4C(O)CC5(C)C(C6COC(O)C6)CCC5(O)C4CCC3(O)C2)C(O)C(O)C1O` (stereo not drawn) [BPR1P0003S0], for which the IC50 in data set [1] (NA inhibition, IC50 H1N1) amounted to 37.3 ± 13.4 µM; in data set [2], 2.62 ± 0.96 µM; in data set [3], 2180 ± 30 nM.
Consider `CC12CCC(O)CC1CCC1C2CC(O)C2(C)C(C3=CC(=O)OC3)CCC12O` (stereo not drawn) [BPR1P0007S0], for which the IC50 was determined as 36.5 ± 5.02 µM in data set [1] (NA inhibition, IC50 H1N1); 2.49 ± 1.43 µM in data set [2]; 1790 ± 10 nM in data set [3].
The corresponding values for `CC12CCC(O)CC1CCC1C2CCC2(C)C(C3=CC(=O)OC3)CCC12O` (stereo not drawn) [BPR1P0008S0] are 31.4 ± 7.33 µM, 2.56 ± 0.2 µM and 2000 nM.
In the case of `CCC(CC)O[C@@H]1C=C(C(=O)O)C[C@H](N)[C@H]1NC(C)=O` [GS4071, oseltamivir carboxylate, reference compound], the IC50 is […] in data set [4] and 0.02 ± 0.0031 µM in data set [5].
Regarding `O=C(Nc1ccc2c(O)cc(S(=O)(=O)O)cc2c1)Nc1ccc2c(O)cc(S(=O)(=O)O)cc2c1` [NSC45174], the IC50 in data set [1] (IC50 Wild type H1N1) was < 10 µM and 5.29 µM; in data set [2], 16.7 ± 1.67 µM; in data set [2] (read-out: IC50 Wild type H5N1) it was < 20 µM; in data set [5] (Influenza A virus, MDCK), 36.5 µM; in data set [5], 36.5 ± 1.19 µM. In data set [6], the CC50 is > 100 µM.
`O=C(Nc1ccc2c(O)c(/N=N/c3ccc4c(O)cc(S(=O)(=O)O)cc4c3)c(S(=O)(=O)O)cc2c1)c1ccccc1` [NSC45609]: the IC50 in data set [1] (IC50 Wild type H1N1) is < 10 µM and 3.67 µM; in data set [2] it was 13 ± 0.78 µM; in data set [2] (read-out: IC50 Wild type H5N1), < 20 µM; in data set [5] (Influenza A virus, MDCK) it was 16.5 µM; in data set [5], 16.5 ± 0.63 µM. In addition, the CC50 in data set [6] is > 100 µM.
As for `Nc1ccc2c(O)c(/N=N/c3ccc4c(O)cc(S(=O)(=O)O)cc4c3)c(S(=O)(=O)O)cc2c1` [NSC162535], the IC50 in data set [1] (IC50 Wild type H1N1) was < 10 µM and 4.49 µM; in data set [2], 18.7 ± 1.89 µM; in data set [2] (read-out: IC50 Wild type H5N1), < 20 µM; in data set [5] (Influenza A virus, MDCK), 61.5 µM; in data set [5], 61.45 ± 0.17 µM. In data set [6], the CC50 is > 100 µM. The “concentration showing consistent blue color (living cells) in CPE assay” value in data set [5] was ≥ 50 µM.
